Laboratory results: PMC6199309, “A therapeutic approach to pantothenate kinase associated neurodegeneration” (Nature Communications, 2018)

Legend:
CSNK1G3 = biological target: T1, CSNK1G3 (Homo sapiens, UniProt Q9Y6M4); experiment: KINOMEscan; type: binding; conditions: read-out: %Ctrl @ 10000nM
T1 construct: purchased DiscoverX KINOMEscan

YANK2 = biological target: T2, YANK2 (Homo sapiens, UniProt Q9NY57); experiment: KINOMEscan; type: binding; conditions: read-out: %Ctrl @ 10000nM
T2 construct: DNA label for qPCR (T7 phage fusion or DNA tag); purchased DiscoverX scanMAX; host or cells: E. coli BL21-derived (T7 phage) or HEK-293

GSK3A = biological target: T3, GSK3A (Homo sapiens, UniProt P49840); experiment: KINOMEscan; type: binding; conditions: read-out: %Ctrl @ 10000nM
T3 construct: purchased DiscoverX KINOMEscan

DAPK3 = biological target: T4, DAPK3 (Homo sapiens, UniProt O43293); experiment: KINOMEscan; type: binding; conditions: read-out: %Ctrl @ 10000nM
T4 construct: purchased DiscoverX KINOMEscan

PIK4CB = biological target: T5, PIK4CB (Homo sapiens, UniProt Q9UBF8); experiment: KINOMEscan; type: binding; conditions: read-out: %Ctrl @ 10000nM
T5 construct: purchased DiscoverX KINOMEscan

BRSK1 = biological target: T6, BRSK1 (Homo sapiens, UniProt Q8TDC3); experiment: KINOMEscan; type: binding; conditions: read-out: %Ctrl @ 10000nM
T6 construct: purchased DiscoverX KINOMEscan

AURKC = biological target: T7, AURKC (Homo sapiens, UniProt Q9UQB9); experiment: KINOMEscan; type: binding; conditions: read-out: %Ctrl @ 10000nM
T7 construct: purchased DiscoverX KINOMEscan

CSNK1E = biological target: T8, CSNK1E (Homo sapiens, UniProt P49674); experiment: KINOMEscan; type: binding; conditions: read-out: %Ctrl @ 10000nM
T8 construct: purchased DiscoverX KINOMEscan

IKK-epsilon = biological target: T9, IKK-epsilon (Homo sapiens, UniProt Q14164); experiment: KINOMEscan; type: binding; conditions: read-out: %Ctrl @ 10000nM
T9 construct: purchased DiscoverX KINOMEscan

CAMK2A = biological target: T10, CAMK2A (Homo sapiens, UniProt Q9UQM7); experiment: KINOMEscan; type: binding; conditions: read-out: %Ctrl @ 10000nM
T10 construct: purchased DiscoverX KINOMEscan

ERK3 = biological target: T11, ERK3 (Homo sapiens, UniProt Q16659); experiment: KINOMEscan; type: binding; conditions: read-out: %Ctrl @ 10000nM
T11 construct: purchased DiscoverX KINOMEscan

PRKG1 = biological target: T12, PRKG1 (Homo sapiens, UniProt Q13976); experiment: KINOMEscan; type: binding; conditions: read-out: %Ctrl @ 10000nM
T12 construct: purchased DiscoverX KINOMEscan

TLK2 = biological target: T13, TLK2 (Homo sapiens, UniProt Q86UE8); experiment: KINOMEscan; type: binding; conditions: read-out: %Ctrl @ 10000nM
T13 construct: purchased DiscoverX KINOMEscan

MTOR = biological target: T14, MTOR (Homo sapiens, UniProt P42345); experiment: KINOMEscan; type: binding; conditions: read-out: %Ctrl @ 10000nM
T14 construct: purchased DiscoverX KINOMEscan

DRAK2 = biological target: T15, DRAK2 (Homo sapiens, UniProt O94768); experiment: KINOMEscan; type: binding; conditions: read-out: %Ctrl @ 10000nM
T15 construct: purchased DiscoverX KINOMEscan

NEK4 = biological target: T16, NEK4 (Homo sapiens, UniProt P51957); experiment: KINOMEscan; type: binding; conditions: read-out: %Ctrl @ 10000nM
T16 construct: purchased DiscoverX KINOMEscan

PKNB(M.tuberculosis) = biological target: T17, PKNB(M.tuberculosis) (Mycobacterium tuberculosis, UniProt P9WI81); experiment: KINOMEscan; type: binding; conditions: read-out: %Ctrl @ 10000nM
T17 construct: purchased DiscoverX KINOMEscan

TRKA = biological target: T18, TRKA (Homo sapiens, UniProt P04629); experiment: KINOMEscan; type: binding; conditions: read-out: %Ctrl @ 10000nM
T18 construct: purchased DiscoverX KINOMEscan

TIE1 = biological target: T19, TIE1 (Homo sapiens, UniProt P35590); experiment: KINOMEscan; type: binding; conditions: read-out: %Ctrl @ 10000nM
T19 construct: purchased DiscoverX KINOMEscan

GRK2 = biological target: T20, GRK2 (Homo sapiens, UniProt P25098); experiment: KINOMEscan; type: binding; conditions: read-out: %Ctrl @ 10000nM
T20 construct: purchased DiscoverX KINOMEscan

PIM1 = biological target: T21, PIM1 (Homo sapiens, UniProt P11309); experiment: KINOMEscan; type: binding; conditions: read-out: %Ctrl @ 10000nM
T21 construct: purchased DiscoverX KINOMEscan

KIT(L576P) = biological target: T22, KIT(L576P) (Homo sapiens, UniProt P10721, L576P); experiment: KINOMEscan; type: binding; conditions: read-out: %Ctrl @ 10000nM
T22 construct: purchased DiscoverX KINOMEscan

FLT3(N841I) = biological target: T23, FLT3(N841I) (Homo sapiens, UniProt P36888, N841I); experiment: KINOMEscan; type: binding; conditions: read-out: %Ctrl @ 10000nM
T23 construct: purchased DiscoverX KINOMEscan

CLK1 = biological target: T24, CLK1 (Homo sapiens, UniProt P49759); experiment: KINOMEscan; type: binding; conditions: read-out: %Ctrl @ 10000nM
T24 construct: purchased DiscoverX KINOMEscan

MST1 = biological target: T25, MST1 (Homo sapiens, UniProt Q13043); experiment: KINOMEscan; type: binding; conditions: read-out: %Ctrl @ 10000nM
T25 construct: purchased DiscoverX KINOMEscan

PIP5K2C = biological target: T26, PIP5K2C (Homo sapiens, UniProt Q8TBX8); experiment: KINOMEscan; type: binding; conditions: read-out: %Ctrl @ 10000nM
T26 construct: purchased DiscoverX KINOMEscan

EPHA7 = biological target: T27, EPHA7 (Homo sapiens, UniProt Q15375); experiment: KINOMEscan; type: binding; conditions: read-out: %Ctrl @ 10000nM
T27 construct: purchased DiscoverX KINOMEscan

HIPK4 = biological target: T28, HIPK4 (Homo sapiens, UniProt Q8NE63); experiment: KINOMEscan; type: binding; conditions: read-out: %Ctrl @ 10000nM
T28 construct: purchased DiscoverX KINOMEscan

STK35 = biological target: T29, STK35 (Homo sapiens, UniProt Q8TDR2); experiment: KINOMEscan KdELECT; type: binding
T29 construct: DNA tag for qPCR (T7 phage fusion or DNA label); purchased DiscoverX KdELECT; host or cells: E. coli BL21-derived (T7 phage) or HEK-293

NEK2 = biological target: T30, NEK2 (Homo sapiens, UniProt P51955); experiment: KINOMEscan; type: binding; conditions: read-out: %Ctrl @ 10000nM
T30 construct: purchased DiscoverX KINOMEscan

p38-alpha = biological target: T31, p38-alpha (Homo sapiens, UniProt Q16539); experiment: KINOMEscan; type: binding; conditions: read-out: %Ctrl @ 10000nM
T31 construct: purchased DiscoverX KINOMEscan

[1] = biological target: T32, JAK1(JH1domain-catalytic) (Homo sapiens, UniProt P23458); experiment: KINOMEscan; type: binding; conditions: read-out: %Ctrl @ 10000nM
T32 construct: JAK1(JH1domain-catalytic); purchased DiscoverX KINOMEscan

CDC2L1 = biological target: T33, CDC2L1 (Homo sapiens, UniProt P21127); experiment: KINOMEscan; type: binding; conditions: read-out: %Ctrl @ 10000nM
T33 construct: purchased DiscoverX KINOMEscan

MRCKA = biological target: T34, MRCKA (Homo sapiens, UniProt Q5VT25); experiment: KINOMEscan; type: binding; conditions: read-out: %Ctrl @ 10000nM
T34 construct: purchased DiscoverX KINOMEscan

CAMK2G = biological target: T35, CAMK2G (Homo sapiens, UniProt Q13555); experiment: KINOMEscan; type: binding; conditions: read-out: %Ctrl @ 10000nM
T35 construct: purchased DiscoverX KINOMEscan

PIK3CB = biological target: T36, PIK3CB (Homo sapiens, UniProt P42338); experiment: KINOMEscan; type: binding; conditions: read-out: %Ctrl @ 10000nM
T36 construct: purchased DiscoverX KINOMEscan

ALK(C1156Y) = biological target: T37, ALK(C1156Y) (Homo sapiens, UniProt Q9UM73, C1156Y); experiment: KINOMEscan; type: binding; conditions: read-out: %Ctrl @ 10000nM
T37 construct: purchased DiscoverX KINOMEscan

PAMPA-BBB = type: in vitro ADME; conditions: BBB = Blood Brain Barrier, read-out: PAMPA-BBB, Avg Pe
YSK1 = biological target: T38, YSK1 (Homo sapiens, UniProt O00506); experiment: KINOMEscan; type: binding; conditions: read-out: %Ctrl @ 10000nM
T38 construct: purchased DiscoverX scanMAX; host or cells: E. coli BL21-derived host (T7 phage) or HEK-293

FYN = biological target: T39, FYN (Homo sapiens, UniProt P06241); experiment: KINOMEscan; type: binding; conditions: read-out: %Ctrl @ 10000nM
T39 construct: purchased DiscoverX KINOMEscan

T29 sequence (Q8TDR2 whole entry, the tested form may be a part): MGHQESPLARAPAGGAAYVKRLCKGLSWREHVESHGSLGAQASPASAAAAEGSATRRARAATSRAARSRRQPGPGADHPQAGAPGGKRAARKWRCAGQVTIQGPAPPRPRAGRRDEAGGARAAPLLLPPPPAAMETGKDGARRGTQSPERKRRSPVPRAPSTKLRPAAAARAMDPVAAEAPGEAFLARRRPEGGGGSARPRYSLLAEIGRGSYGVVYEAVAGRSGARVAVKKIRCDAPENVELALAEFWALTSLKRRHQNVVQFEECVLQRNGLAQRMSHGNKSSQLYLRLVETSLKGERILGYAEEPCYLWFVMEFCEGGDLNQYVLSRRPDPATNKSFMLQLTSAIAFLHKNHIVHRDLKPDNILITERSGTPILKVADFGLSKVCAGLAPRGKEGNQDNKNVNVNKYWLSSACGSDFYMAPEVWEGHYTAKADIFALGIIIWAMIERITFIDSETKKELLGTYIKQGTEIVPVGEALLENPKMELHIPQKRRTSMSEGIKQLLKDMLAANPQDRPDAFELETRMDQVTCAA
T36 sequence (P42338 whole entry): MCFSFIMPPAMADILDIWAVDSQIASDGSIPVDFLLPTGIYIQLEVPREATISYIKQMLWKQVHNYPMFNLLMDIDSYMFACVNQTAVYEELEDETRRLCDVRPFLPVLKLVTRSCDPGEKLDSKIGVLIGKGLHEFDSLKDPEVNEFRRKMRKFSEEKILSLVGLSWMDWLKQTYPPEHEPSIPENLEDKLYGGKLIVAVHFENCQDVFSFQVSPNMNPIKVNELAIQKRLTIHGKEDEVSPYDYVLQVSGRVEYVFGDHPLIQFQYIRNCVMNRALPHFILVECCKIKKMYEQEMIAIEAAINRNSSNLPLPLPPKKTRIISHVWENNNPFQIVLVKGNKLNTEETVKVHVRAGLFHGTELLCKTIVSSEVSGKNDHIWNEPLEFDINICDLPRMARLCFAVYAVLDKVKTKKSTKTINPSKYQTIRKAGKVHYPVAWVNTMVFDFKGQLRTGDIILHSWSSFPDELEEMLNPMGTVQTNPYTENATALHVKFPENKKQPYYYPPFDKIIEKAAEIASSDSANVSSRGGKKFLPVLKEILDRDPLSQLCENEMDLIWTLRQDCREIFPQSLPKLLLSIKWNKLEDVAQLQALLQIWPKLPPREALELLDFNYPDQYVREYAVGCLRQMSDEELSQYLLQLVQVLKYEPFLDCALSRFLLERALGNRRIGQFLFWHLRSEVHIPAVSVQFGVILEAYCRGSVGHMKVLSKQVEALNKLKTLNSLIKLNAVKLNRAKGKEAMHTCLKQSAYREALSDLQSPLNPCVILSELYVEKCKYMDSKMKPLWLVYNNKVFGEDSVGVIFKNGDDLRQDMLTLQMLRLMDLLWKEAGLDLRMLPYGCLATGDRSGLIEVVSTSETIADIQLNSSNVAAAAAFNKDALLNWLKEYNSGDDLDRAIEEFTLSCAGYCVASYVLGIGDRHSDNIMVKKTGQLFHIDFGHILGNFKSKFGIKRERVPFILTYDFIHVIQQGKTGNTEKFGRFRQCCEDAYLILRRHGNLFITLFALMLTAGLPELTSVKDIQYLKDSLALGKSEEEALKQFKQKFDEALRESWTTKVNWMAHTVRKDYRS
T9 sequence (Q14164 whole entry): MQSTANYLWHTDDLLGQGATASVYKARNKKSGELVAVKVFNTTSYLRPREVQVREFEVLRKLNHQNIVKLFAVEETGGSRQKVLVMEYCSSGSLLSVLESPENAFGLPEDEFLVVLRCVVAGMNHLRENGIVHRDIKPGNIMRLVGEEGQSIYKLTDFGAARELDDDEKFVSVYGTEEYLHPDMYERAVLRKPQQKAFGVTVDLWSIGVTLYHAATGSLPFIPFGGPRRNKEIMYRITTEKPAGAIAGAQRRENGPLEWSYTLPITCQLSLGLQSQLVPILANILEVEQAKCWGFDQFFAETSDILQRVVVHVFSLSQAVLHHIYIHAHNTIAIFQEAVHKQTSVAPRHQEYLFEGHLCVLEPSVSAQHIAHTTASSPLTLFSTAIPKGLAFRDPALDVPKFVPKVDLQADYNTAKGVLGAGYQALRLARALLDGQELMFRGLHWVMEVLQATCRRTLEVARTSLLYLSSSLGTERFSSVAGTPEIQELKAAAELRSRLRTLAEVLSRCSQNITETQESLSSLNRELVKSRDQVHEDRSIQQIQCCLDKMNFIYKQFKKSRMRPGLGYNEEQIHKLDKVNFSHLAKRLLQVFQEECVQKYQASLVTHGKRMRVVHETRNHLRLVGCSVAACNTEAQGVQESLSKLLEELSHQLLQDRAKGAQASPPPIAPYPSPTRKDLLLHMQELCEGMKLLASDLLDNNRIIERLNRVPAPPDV
T27 sequence (Q15375 28-998): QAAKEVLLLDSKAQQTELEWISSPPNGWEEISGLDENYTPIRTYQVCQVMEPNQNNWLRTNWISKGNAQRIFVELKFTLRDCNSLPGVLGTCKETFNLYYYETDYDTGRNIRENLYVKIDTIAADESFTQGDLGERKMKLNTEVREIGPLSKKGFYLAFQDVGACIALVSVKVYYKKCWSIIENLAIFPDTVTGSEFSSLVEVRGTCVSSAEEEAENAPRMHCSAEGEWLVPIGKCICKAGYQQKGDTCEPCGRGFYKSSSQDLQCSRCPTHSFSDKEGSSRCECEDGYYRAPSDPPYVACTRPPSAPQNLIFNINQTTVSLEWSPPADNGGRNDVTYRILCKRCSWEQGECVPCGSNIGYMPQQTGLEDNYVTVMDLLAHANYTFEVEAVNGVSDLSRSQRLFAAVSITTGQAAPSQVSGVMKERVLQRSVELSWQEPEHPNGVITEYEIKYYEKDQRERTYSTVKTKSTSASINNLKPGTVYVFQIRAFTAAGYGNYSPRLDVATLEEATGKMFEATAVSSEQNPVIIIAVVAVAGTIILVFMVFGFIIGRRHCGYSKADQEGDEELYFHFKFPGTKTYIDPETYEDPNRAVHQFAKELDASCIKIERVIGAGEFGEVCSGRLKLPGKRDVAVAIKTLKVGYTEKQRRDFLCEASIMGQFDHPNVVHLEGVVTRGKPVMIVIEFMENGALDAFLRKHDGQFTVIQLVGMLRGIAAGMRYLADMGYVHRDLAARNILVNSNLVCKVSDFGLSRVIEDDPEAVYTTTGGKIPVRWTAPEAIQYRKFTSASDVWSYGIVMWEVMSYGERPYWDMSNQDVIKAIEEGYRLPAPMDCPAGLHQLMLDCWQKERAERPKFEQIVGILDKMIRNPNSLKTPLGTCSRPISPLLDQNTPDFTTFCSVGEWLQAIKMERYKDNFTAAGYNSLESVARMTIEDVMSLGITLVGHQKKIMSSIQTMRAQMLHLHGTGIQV
T21 sequence (P11309 whole entry): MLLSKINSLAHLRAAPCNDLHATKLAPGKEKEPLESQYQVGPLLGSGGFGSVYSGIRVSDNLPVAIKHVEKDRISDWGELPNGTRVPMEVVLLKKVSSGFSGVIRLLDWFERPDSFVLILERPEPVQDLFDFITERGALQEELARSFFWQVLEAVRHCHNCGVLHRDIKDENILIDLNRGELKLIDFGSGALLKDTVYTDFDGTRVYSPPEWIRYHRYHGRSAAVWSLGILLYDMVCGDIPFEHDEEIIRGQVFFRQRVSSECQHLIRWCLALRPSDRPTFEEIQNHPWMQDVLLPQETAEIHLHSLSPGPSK
T5 sequence (Q9UBF8 whole entry): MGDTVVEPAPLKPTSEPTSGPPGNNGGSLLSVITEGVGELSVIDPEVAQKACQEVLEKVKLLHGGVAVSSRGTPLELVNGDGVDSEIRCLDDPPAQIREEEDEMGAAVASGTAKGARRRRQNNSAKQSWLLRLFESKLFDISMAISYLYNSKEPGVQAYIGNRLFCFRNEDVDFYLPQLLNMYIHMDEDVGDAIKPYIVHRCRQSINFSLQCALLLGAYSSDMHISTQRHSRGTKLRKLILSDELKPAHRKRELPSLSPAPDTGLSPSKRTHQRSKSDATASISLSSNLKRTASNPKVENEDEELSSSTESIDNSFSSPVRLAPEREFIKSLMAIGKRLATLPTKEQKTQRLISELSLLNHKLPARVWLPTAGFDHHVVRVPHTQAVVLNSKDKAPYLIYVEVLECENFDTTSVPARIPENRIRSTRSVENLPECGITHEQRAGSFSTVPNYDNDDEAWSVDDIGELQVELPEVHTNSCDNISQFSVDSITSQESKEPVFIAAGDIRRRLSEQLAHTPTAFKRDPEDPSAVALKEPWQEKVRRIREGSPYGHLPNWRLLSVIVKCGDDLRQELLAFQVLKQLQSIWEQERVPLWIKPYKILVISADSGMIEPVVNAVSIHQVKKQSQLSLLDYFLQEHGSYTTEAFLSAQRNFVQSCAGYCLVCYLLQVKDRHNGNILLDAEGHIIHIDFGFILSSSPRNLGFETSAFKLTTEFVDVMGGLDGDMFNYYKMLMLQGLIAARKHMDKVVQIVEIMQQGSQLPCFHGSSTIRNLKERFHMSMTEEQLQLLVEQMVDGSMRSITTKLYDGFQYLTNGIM
T4 sequence (O43293 whole entry): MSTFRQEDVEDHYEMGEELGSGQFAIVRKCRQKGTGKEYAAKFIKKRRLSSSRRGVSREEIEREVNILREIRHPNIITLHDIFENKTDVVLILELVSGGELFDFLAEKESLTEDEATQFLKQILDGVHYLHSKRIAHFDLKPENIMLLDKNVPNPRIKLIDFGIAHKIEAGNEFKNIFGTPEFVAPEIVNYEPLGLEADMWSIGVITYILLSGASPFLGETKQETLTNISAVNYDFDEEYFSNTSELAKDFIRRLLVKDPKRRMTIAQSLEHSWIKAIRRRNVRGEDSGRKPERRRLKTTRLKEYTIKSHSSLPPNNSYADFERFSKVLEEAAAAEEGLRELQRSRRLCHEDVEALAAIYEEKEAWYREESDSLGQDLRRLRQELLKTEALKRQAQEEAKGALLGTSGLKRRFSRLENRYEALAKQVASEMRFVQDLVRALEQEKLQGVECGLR

## CC(C)c1ccc(CC(=O)N2CCN(c3ccc(C#N)nn3)CC2)cc1 [PZ-2891, 6-(4-(2-(4-isopropylphenyl)acetyl)piperazin-1-yl)pyridazine-3-carbonitrile]
CSNK1G3
  remaining binding at 10 µM: 80%
YANK2
  remaining binding at 10 µM: 100%
GSK3A
  remaining binding at 10 µM: 83%
DAPK3
  remaining binding at 10 µM: 100%
PIK4CB
  remaining binding at 10 µM: 84%
BRSK1
  remaining binding at 10 µM: 75%
AURKC
  remaining binding at 10 µM: 94%
CSNK1E
  remaining binding at 10 µM: 97%
IKK-epsilon
  remaining binding at 10 µM: 89%
CAMK2A
  remaining binding at 10 µM: 98%
ERK3
  remaining binding at 10 µM: 97%
PRKG1
  remaining binding at 10 µM: 99%
TLK2
  remaining binding at 10 µM: 98%
MTOR
  remaining binding at 10 µM: 68%
DRAK2
  remaining binding at 10 µM: 95%
NEK4
  remaining binding at 10 µM: 95%
PKNB(M.tuberculosis)
  remaining binding at 10 µM: 74%
TRKA
  remaining binding at 10 µM: 100%
TIE1
  remaining binding at 10 µM: 85%
GRK2
  remaining binding at 10 µM: 56%
PIM1
  remaining binding at 10 µM: 93%
KIT(L576P)
  remaining binding at 10 µM: 88%
FLT3(N841I)
  remaining binding at 10 µM: 86%
CLK1
  remaining binding at 10 µM: 75%
MST1
  remaining binding at 10 µM: 86%
PIP5K2C
  remaining binding at 10 µM: 85%
EPHA7
  remaining binding at 10 µM: 92%
HIPK4
  remaining binding at 10 µM: 94%
STK35; STK35
  Kd: > 30 µM
STK35; STK35 Replicate ID = 1
  Kd: > 30 µM
STK35; STK35 Replicate ID = 2
  Kd: > 30 µM
NEK2
  remaining binding at 10 µM: 88%
p38-alpha
  remaining binding at 10 µM: 100%
[1]
  remaining binding at 10 µM: 74%
CDC2L1
  remaining binding at 10 µM: 95%
MRCKA
  remaining binding at 10 µM: 92%
CAMK2G
  remaining binding at 10 µM: 86%
PIK3CB
  remaining binding at 10 µM: 65%
ALK(C1156Y)
  remaining binding at 10 µM: 74%
PAMPA-BBB
  Papp: 52 ×10⁻⁶ cm/s
YSK1
  remaining binding at 10 µM: 100%
FYN
  remaining binding at 10 µM: 87%
